Experimental data reported in patent US10472333B2, “P2X4 receptor antagonist” (NIPPON CHEMIPHAR CO., LTD., priority 2013, dated 2019).
Counter-ions that a name gives are not always drawn.

molecular target: T1, human P2X4 receptor (Homo sapiens, UniProt Q99571); experiment: P2X4 receptor antagonist activity, ATP-induced intracellular calcium (Fura-2 AM) in 1321N1 cells stably expressing human P2X4 receptor; type: cell-based; details: not given
T1 sequence (Q99571 1-388): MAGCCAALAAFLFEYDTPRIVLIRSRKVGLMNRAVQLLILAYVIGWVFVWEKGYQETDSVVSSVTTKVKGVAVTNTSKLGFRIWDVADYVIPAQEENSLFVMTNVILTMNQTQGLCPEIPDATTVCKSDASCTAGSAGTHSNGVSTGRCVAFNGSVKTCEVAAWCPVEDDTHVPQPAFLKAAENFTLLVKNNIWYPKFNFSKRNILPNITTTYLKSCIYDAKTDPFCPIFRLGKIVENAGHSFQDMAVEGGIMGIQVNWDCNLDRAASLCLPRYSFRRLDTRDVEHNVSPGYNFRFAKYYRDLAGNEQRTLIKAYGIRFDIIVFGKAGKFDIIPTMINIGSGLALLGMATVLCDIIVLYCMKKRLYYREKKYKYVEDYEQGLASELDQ

**Q.** For O=C1CN=C(c2ccc(NC(=O)c3cccnc3N3CCCC3)cc2)c2ccc3ccccc3c2N1 [Example 21, N-[4-(2-Oxo-2,3-dihydro-1H-naphtho[1,2-e][1,4]-diazepin-5-yl)phenyl]-2-(pyrrolidin-1-yl)nicotinamide dihydrochloride], which IC50 is on record?
**A.** 1300 nM

**Q.** How did the IC50 turn out when O=C1CN=C(c2ccc(NC(=O)c3cccnc3-n3cccc3)cc2)c2ccc3ccccc3c2N1 [Example 19, N-[4-(2-Oxo-2,3-dihydro-1H-naphtho[1,2-e][1,4]-diazepin-5-yl)phenyl]-2-(1H-pyrrol-1-yl)nicotinamide dihydrochloride] was run?
**A.** 2400 nM

**Q.** With CCc1ncccc1C(=O)Nc1ccc(C2=NCC(=O)Nc3c2ccc2ccccc32)cc1 [Example 3, 2-Ethyl-N-[4-(2-oxo-2,3-dihydro-1H-naphtho[1,2-e][1,4]-diazepin-5-yl)phenyl]nicotinamide dihydrochloride] as the molecule, how does the IC50 read?
**A.** 1600 nM

**Q.** With CCc1c(O)cccc1C(=O)Nc1ccc(C2=NCC(=O)Nc3c2ccc2ccccc32)cc1 [Example 2, 2-Ethyl-3-hydroxy-N-[4-(2-oxo-2,3-dihydro-1H-naphtho[1,2-e][1,4]-diazepin-5-yl)phenyl]benzamide] as the molecule, how does the IC50 read?
**A.** 770 nM

**Q.** Which IC50 does the source give for CCc1cccc(O)c1C(=O)Nc1ccc(C2=NCC(=O)Nc3c2ccc2ccccc32)cc1 [Example 4, 2-Ethyl-6-hydroxy-N-[4-(2-oxo-2,3-dihydro-1H-naphtho[1,2-e][1,4]-diazepin-5-yl)phenyl]benzamide] here?
**A.** 1500 nM

**Q.** For O=C1CN=C(c2ccc(NC(=O)c3cccnc3N3CCOCC3)cc2)c2ccc3ccccc3c2N1 [Example 20, 2-(Morpholin-4-yl)-N-[4-(2-oxo-2,3-dihydro-1H-naphtho[1,2-e][1,4]-diazepin-5-yl)phenyl]nicotinamide dihydrochloride], which IC50 is on record?
**A.** 2500 nM

**Q.** With CN(C)c1ccncc1C(=O)Nc1ccc(C2=NCC(=O)Nc3c2ccc2ccccc32)cc1 [Example 22, 4-(Dimethylamino)-N-[4-(2-oxo-2,3-dihydro-1H-naphtho[1,2-e][1,4]diazepin-5 yl)phenyl]nicotinamide dihydrochloride] as the molecule, how does the IC50 read?
**A.** 1500 nM

**Q.** Which IC50 does the source give for CC(C)c1ncccc1C(=O)Nc1ccc(C2=NCC(=O)Nc3c2ccc2ccccc32)cc1 [Example 23, 2-Isopropyl-N-[4-(2-oxo-2,3-dihydro-1H-naphtho[1,2-e][1,4]diazepin-5 yl)phenyl]nicotinamide dihydrochloride] here?
**A.** 2300 nM

**Q.** For COc1ccccc1CC(=O)Nc1ccc(C2=NCC(=O)Nc3c2ccc2ccccc32)cc1 [Example 7, 2(2-Methoxyphenyl)-N-[4-(2-oxo-2,3-dihydro-1H-naphtho[1,2-e][1,4]-diazepin-5-yl)phenyl]acetamide], which IC50 is on record?
**A.** 970 nM

**Q.** Which IC50 does the source give for CC(C)Nc1ncccc1C(=O)Nc1ccc(C2=NCC(=O)Nc3c2ccc2ccccc32)cc1 [Example 24, 2-(Isopropylamino)-N-[4-(2-oxo-2,3-dihydro-1H-naphtho[1,2-e][1,4]diazepin-5-yl)phenyl]nicotinamide dihydrochloride] here?
**A.** 8600 nM

same assay, conditions: Table 9; 1321N1 cells expressing human P2X4; test substance 15 minutes before ATP; read-out: Inhibitory activity IC50

**Q.** CC(C)(C)c1ccccc1C(=O)Nc1ccc(N2C(=O)CC(=O)Nc3c2ccc2ccccc32)cc1F [Example 12, 2-tert-Butyl-N-[4-(2,4-dioxo-3,4-dihydro-1H-naphtho[2,1-b][1,4]diazepin-5(2H)-yl)2-fluorophenyl]benzamide] was tested. Which IC50 did it give?
**A.** 370 nM

**Q.** With CN(C)c1ncccc1C(=O)Nc1ccc(N2C(=O)CC(=O)Nc3c2ccc2ccccc32)cc1 [Example 14, 2-(Dimethylamino)-N-[4-(2,4-dioxo-2,3-dihydro-1H-naphtho[1,2-b][1,4]diazepin-5(2H)-yl)phenyl]nicotinamide hydrochloride] as the molecule, how does the IC50 read?
**A.** 590 nM

same assay, conditions: Table 10; 1321N1 cells expressing human P2X4; test substance 15 minutes before ATP; read-out: Inhibitory activity IC50

**Q.** Which IC50 does the source give for O=C1CC(=O)N(c2ccc(NC(=O)c3cccnc3N3CCOCC3)cc2)c2ccc3ccccc3c2N1 [Example 18, N-[4-(2,4-Dioxo-3,4-dihydro-1H-naphtho[1,2-b][1,4]-diazepin-5(2H)-yl)phenyl]-2-(morpholin-4-yl)-nicotinamide hydrochloride] here?
**A.** 1300 nM
